Publication PMC4849654, “A High-Throughput Cell-Based Screen Identified a 2-[(E)-2-Phenylvinyl]-8-Quinolinol Core Structure That Activates p53” (PLoS ONE, 2016)
Where a SMILES comes first, the peptide text is derived from it. The star is where a group is joined. Cbz = O=C(OCc1ccccc1)*

Legend:
[1] = system: proteasome trypsin-like activity; assay: Proteasome-Glo trypsin-like activity; assay type: cell-based; settings: C33a cells, 2 hrs, 10 μM or 30 μM
[2] = system: proteasome chymotrypsin-like activity; assay: Proteasome-Glo chymotrypsin-like activity; assay type: cell-based; settings: C33a cells, 2 hrs, 10 μM or 30 μM
[3] = system: p53-Luc; assay: TE6 p53-Luc targeted degradation reporter in C33a cells; assay type: cell-based; settings: C33a cells expressing p53-Luc and TE6
Method: Adenoviruses were generated using the RAPAd CMV adenoviral expression system (Cellbiolabs, San Diego, CA). High-throughput screening was performed at the University of Illinois High-Throughput Screening Facility. For each group, 1x 10^7 C33a cells were plated in 150 mm^2 dishes in 20 ml cDMEM. For p53xTE6 group, 1 x 10^8 GFU/mL of p53-Luc adenovirus and 1 x 10^9 GFU/mL TE6 adenovirus were plated. For RbxTE7 group, 1 x 10^8 GFU/mL of p60RbRen adenovirus and 1 x 10^9 GFU/mL of βTrCP-E7 adenovirus were added. For control group, Ad-Red was substituted for TE6 or TE7 adenovirus in the p53 control and Rb control, respectively. […] Positive hits were scored as ≥ 2-fold above vehicle treated p53-Luc wells.
For the in vitro assay, E6 was cloned into the pMAL vector in frame with the maltose binding protein. […] We measured luciferase activity after 30 minutes. For the trypsin and chymotrypsin assay, C33a cells were incubated for 2 hours with the indicated compounds at 10 μM and assessed for chymotrypsin and trypsin activity using Proteasome-Glo assay (Promega). […] After incubation, cells were lysed and luciferase activity measured and p53 levels measured by Western blot.

[4] = system: C33a cells; assay: Cell viability (Cell Titer Glo), C33a; assay type: cell-based; settings: for IC50: C33a cells, 48 hrs, Cell Titer Glo
Method: (§1) For the viability assays, 20,000 C33a, HeLa, or siHA cells were plated in white 96 well flat bottom plates. The cells were treated with compounds at concentrations from 0.5 to 30 μM for 48 hrs. After incubation, Cell Titer Glo (Promega) was added to the cells and luminescence read in a Tecan II plate reader. For annexin V and PI staining, 500,000 C33a cells were treated with inhibitor for 24 hrs. The cells were stained with Annexin V-FITC and PI according to eBioscience manufacturer’s instructions and analyzed by flow cytometry.

[5] = system: HeLa cells; assay: Cell viability (Cell Titer Glo), HeLa; assay type: cell-based; settings: for IC50: HeLa cells, 48 hrs, Cell Titer Glo
Method: as §1

[6] = biological target: T1, p53 (Homo sapiens, UniProt P04637, R273C); assay: p53 nuclear localization by immunofluorescence; assay type: cell-based; settings: C33a cells, 30 μM, 8 hrs
T1 construct: endogenous in cells; host or cells: C33a
Method: C33a cells were plated into chamber slides and treated with 30 μM of compounds 3 or, 4 for 4, or 8 hours. As a control, 30 μM cisplatin was used. The cells were fixed with 2.5% formaldehyde for 30 minutes, followed by permeabilization with 0.01% Triton X100 for 30 minutes. Cells were blocked with 5% goat serum for 30 minutes and stained overnight with anti-p53 (Santa Cruz, antibody FL-303) or anti-phospho-H2A.X (cell signaling) in 1% FCS in PBS at 4°. The following day, the cells were washed with PBS and incubated for 45 minutes with anti-rabbit-FITC and DAPI in 1% FCS in PBS. The cells were washed and mounted with ProLong Gold.

[7] = biological target: T1, p53; assay: Nuclear/cytoplasmic fractionation and Western analysis of p53; assay type: cell-based; settings: C33a cells, 6 hrs, Western
Method: For nuclear/cytoplasmic fractionation, 1 × 10^7 C33a cells were treated with 30 μM compound for 6 hrs. The cells were washed with PBS and lysed in 1000 μL of cytoplasmic extraction buffer (10 mM KCl, 10 mM HEPES, pH 7.9, 0.1 mM EDTA, 1 mM dithiothreitol) and incubated on ice for 20 min. 50 μL of 10% NP-40 was added to each lysate, vortexed and then centrifuged at 12,000 × g for 10 min. The cytosolic fraction was collected and the pellet containing the nuclei suspended in 50 μL of nuclear extraction buffer (0.4 M NaCl, 20 mM HEPES, pH 7.9, 1 mM EDTA). The nuclear fraction was incubated for 30 min on ice. The samples were spun at 14,000 × g for 10 min and the supernatants were collected. To concentrate the cytoplasmic fraction, 500 μL methanol, and 200 μL chloroform were added and the samples were vortexed, centrifuged for 10 min at 14,000 × g, and the upper and lower layer were discarded. The solid interphase was collected and suspended in 50 μL of lysis buffer. Equal cell equivalents were loaded on a gel and electrophoresed. For whole cell lysates, C33a cells were lysed with a modified RIPA buffer and subjected to SDS-PAGE electrophoresis. The gels were transferred to nitrocellulose and blots probed with antibodies for p53 (Santa Cruz, antibody FL-303), lamin A/C, and calnexin (Santa Cruz Biotechnology).

[8] = system: C33a cells; assay: Cell viability after p53 siRNA knockdown; assay type: cell-based; settings: p53 siRNA vs scrambled, 10 μM, 48 hrs
Method: C33a cells were transfected with 100 pmol siRNA for p53 (Dharmacon, L-003329-00-0005) or AllStar control (Qiagen) using lipofectamine2000 according to manufacturer’s instructions. The cells were incubated for 24 hrs and then split and incubated with 10 μM compounds. Cell viability was measured after 48 hours by Cell Titer Glo. Efficiency of knockdown was determined by quantitative RT-PCR using SYBR green.

[9] = system: p53-Luc; assay: In vitro E6 degradation assay (recombinant E6 with p53-Luc lysates); assay type: biochemical; settings: 50 ng recombinant E6, 10 μM compound, C33a lysates, 6 hours
Method: For the in vitro assay, E6 was cloned into the pMAL vector in frame with the maltose binding protein. The E6 was expressed in bacteria and purified on amylose column. C33a cells were transfected with p53-Luc and incubated overnight. 50 ng recombinant E6 was incubated with 10 μM compound and C33a lysates for 6 hours at 30 degrees. We measured luciferase activity after 30 minutes. For the trypsin and chymotrypsin assay, C33a cells were incubated for 2 hours with the indicated compounds at 10 μM and assessed for chymotrypsin and trypsin activity using Proteasome-Glo assay (Promega). For the in vivo degradation assay, C33a cells expressing Ad-TE6 and Ad-p53 or expressing Ad-TE7 and Ad-Rb-Ren were treated for 8 hours with compounds. After incubation, cells were lysed and luciferase activity measured and p53 levels measured by Western blot.

[10] = system: p21, BAX and FAS; assay: p53 target gene expression (p21, BAX, FAS) by qRT-PCR; assay type: cell-based; settings: HeLa cells, 8h
Description: (§2) RNA from C33a and HeLa was isolated by Trizol and reverse transcribed using the first strand synthesis kit from NEB. Primers for p53, GAPDH and PUMA were used for quantitative real-time PCR (qRT-PCR). Primer sequences include: PUMA (forward primer: CTCAACGCACAGTACGAG and reverse primer: […]), FAS (forward primer: TCTGCCATAAGCCCTGT and reverse primer: GTCTGTGTACTCCTTCCCT), p21 (forward primer: […] and reverse primer: […]), and BAX (forward primer: […] and reverse primer: […]). ΔΔCt values were determined for PUMA using GAPDH to normalize data. Bio-rad SYBR green was used for the amplification and detection of the PCR products on an iCycler (Bio-rad).

[11] = system: PUMA; assay: PUMA transcription by qRT-PCR; assay type: cell-based; settings: 30 μM, 8h
Description: as §2

[12] = system: siHA cells; assay: Cell viability (Cell Titer Glo), siHA; assay type: cell-based; settings: 48h
Method: as §1

| Compound | trypsin-like proteasome activity [1] | chymotrypsin-like proteasome activity [2] | restoration of p53-Luc luciferase activity [3] | IC50 [4] [µM] | IC50 [5] [µM] | expression of p21, BAX and FAS [10] | further results |
| --- | --- | --- | --- | --- | --- | --- | --- |
| CC(C)C[C@@H](C=O)NC(=O)[C@H](CC(C)C)NC(=O)[C@H](CC(C)C)NC(=O)OCc1ccccc1 [MG132, reference compound] (Cbz-Leu-Leu-Leu-aldehyde) | significantly inhibited | significantly inhibited |  |  |  |  |  |
| OCc1ccc(-c2ccc(-c3ccc(CO)s3)o2)s1 [RITA] |  |  | did not restore p53-Luc activity |  |  |  |  |
| CC(C)C[C@H](NC(=O)[C@H](Cc1ccccc1)NC(=O)c1cnccn1)B(O)O [bortezomib] |  |  | restored p53-Luc luciferase activity |  |  |  |  |
| N.N.[Cl][Pt][Cl] [cisplatin, reference compound] |  |  |  | 24 | 4.6 |  |  |
| Cc1cccc(/C=C/c2ccc3cccc(O)c3n2)c1O [compound 3] | did not significantly reduce | did not significantly reduce |  | 3.8 | 6 | induced expression | p53 nuclear accumulation, % of cell nuclei [6]: 51.1±2.18 % of cell nuclei; nuclear accumulation of p53 in nuclear fraction compared to vehicle [7]: higher levels of nuclear accumulation of p53; cell viability at 30 μM ([4]; C33a, 30 μM, 48h): decreased viability; cell viability at 30 μM ([5]; HeLa, 30 μM, 48h): decreased viability; effect of p53 gene knockdown on C33a sensitivity to compound [8]: significantly reversed; restoration of p53 levels in vitro [9]: restored p53 levels in vitro to similar levels as the proteasome inhibitor MG132; PUMA transcription upregulation ([11]; C33a cells): 3.92±0.27 fold; PUMA transcription upregulation ([11]; HeLa cells): 4.35±0.22 fold; cell viability at 30 μM [12]: decreased viability |
| COc1cc(/C=C/c2ccc3cccc(O)c3n2)cc(Br)c1OC [compound 37] |  |  |  |  |  | induced expression |  |
